38 compounds from ChEMBL document CHEMBL4190174 (2016) can be followed below.

Test [1] deals with SNB-19. The test can be described thus: Growth inhibition of empty vector transfected human SNB19 cells after 7 days by MTT assay. Type of test: functional. Particulars: SNB-19, 168 h. Background: Formazan colour is commonly taken as a measure of viable cells.
Test [2] relates to SNB-19. The test can be described thus: Growth inhibition of MGMT-transfected human SNB19 cells after 7 days by MTT assay. To be noted: SNB-19, 168 h. Type of test: functional.
Test [3] concerns U373 MG. The test can be described thus: Growth inhibition of empty vector transfected human U373 cells after 7 days by MTT assay. Format: functional, U-373MG ATCC. To be noted: 168 h.
Test [4] has as its system U373 MG. The test can be described thus: Growth inhibition of MGMT-transfected human U373 cells after 7 days by MTT assay. Format: functional, U-373MG ATCC. To be noted: 168 h.
The test system of test [5] is dsDNA. The test is described as follows: Induction of double stranded DNA break in MGMT-transfected human U373 cells assessed as increase in gamma-H2AX level at 100 uM after 72 hrs by flow cytometry relative to control. Type of test: cell-based. On the technique in general: Flow cytometry measures light scatter and fluorescence of single cells or particles in a stream.

Test [6] deals with Escherichia coli. The test can be described thus: Induction of Escherichia coli linearized pBR322 DNA alkylation at clusters of 3/5 guanines using 5'-end labeled [gamma32P]ATP primer after 2 hrs by PAGE based taq polymerase stop assay.
In test [7] the test system is DNA. The test is described as follows: Induction of Escherichia coli pBR322 DNA cleavage assessed as covalent modification at N-7 guanine at 10 to 1000 uM after 2 hrs by PAGE based autoradiographic method. Format: nucleic-acid assay.
The subject of test [8] is dsDNA. The test can be described thus: Induction of double stranded DNA break in MGMT-transfected human U373 cells assessed as increase in gamma-H2AX level at 100 uM after 72 hrs by flow cytometry. Type of test: cell-based.
For test [9], the system named is Panel NCI-60 (60 carcinoma cell lines). The test is described as follows: Growth inhibition of human NCI60 cells after 48 hrs by MTT assay. Type of test: functional.
Test [10] has as its system SNB-19. The test can be described thus: Ratio of GI50 for MGMT-transfected human SNB19 cells to GI50 for empty vector transfected human SNB19 cells. Type of test: functional.
The test system of test [11] is U373 MG. The test can be described thus: Ratio of GI50 for MGMT-transfected human U373 cells to GI50 for empty vector transfected human U373 cells. Type of test: functional, U-373MG ATCC.
Test [12] in a line: Growth inhibition of human SNB19VR cells by MTT assay. Type of test: functional.
A short description of test [13]: Growth inhibition of human U373VR cells by MTT assay. Type of test: functional.
Test [14] has as its system HCT-116. The test is described as follows: Growth inhibition of human HCT116 cells harboring hMLH1 mutation. Format: functional.
For test [15], the system named is DLD-1. The test is described as follows: Growth inhibition of human DLD1 cells harboring hMSH6 mutation. Format: functional.
Test [16] concerns DNA. The test is described as follows: Induction of Escherichia coli pBR322 DNA interstrand cross linking using 5'-end labeled [gamma32P]ATP primer at <=1000 uM after 2 to 40 hrs by PAGE based autoradiographic method. Format: nucleic-acid assay.
For test [17], the system named is SNB-19. The test is described as follows: Potency index, ratio of temozolomide GI50 to compound GI50 for empty vector transfected human SNB19 cells. Format: functional.
The subject of test [18] is U373 MG. The test can be described thus: Potency index, ratio of temozolomide GI50 to compound GI50 for empty vector transfected human U373 cells. Type of test: functional, U-373MG ATCC.
In test [19] the test system is SNB-19. The test is described as follows: Potency index, ratio of temozolomide GI50 to compound GI50 for MGMT-transfected human SNB19 cells. Format: functional.
Test [20] relates to U373 MG. The test can be described thus: Potency index, ratio of temozolomide GI50 to compound GI50 for MGMT-transfected human U373 cells. Type of test: functional, U-373MG ATCC.

Molecules are shown by their SMILES. The source made the active and inactive calls. No cut-off for these calls is given here.

For orientation: GI50 means the concentration at which growth is held to half of that of the control. Higher therefore signals less potent growth inhibition. Consider `CNC(=O)Cn1nnc2c(C(N)=O)ncn2c1=O`, for which the 50% growth inhibitory concentration (GI50) came to 65.8 µM in test [1], 246 µM in [2], 260 µM in [3] and 263 µM in test [4].

Take `NC(=O)c1nc[nH]c1N/N=N/C1CC1`: the 50% growth inhibitory concentration (GI50) in [1], in test [2], in [3] and in test [4] was > 500 µM each time.

On to `NC(=O)CCn1nnc2c(C(N)=O)ncn2c1=O`, for which the 50% growth inhibitory concentration (GI50) in test [1] is 321 µM; in [2] it was 398 µM; in test [3], 138 µM; in [4], 355 µM.

In the case of `NC(=O)c1ncn2c(=O)n(CC3CC3)nnc12`, the 50% growth inhibitory concentration (GI50) was 286 µM in test [1], 223 µM in [2], 386 µM in [3] and 149 µM in test [4].

`NC(=O)c1ncn2c(=O)n(CC(=O)N3CCOCC3)nnc12`: the GI50 was 62.3 µM in test [1], 102 µM in test [2], 243 µM in [3] and 132 µM in test [4].

`NC(=O)c1nc[nH]c1N/N=N/CC(F)F`: the 50% growth inhibitory concentration (GI50) was found to be 68.8 µM in test [1], 70.3 µM in [2], 205 µM in test [3] and 248 µM in test [4].

With `CCOC(=O)CCn1nnc2c(C(N)=O)ncn2c1=O`, the concentration for 50% growth inhibition (GI50) is 367 µM in [1], 255 µM in test [2], 129 µM in [3] and 143 µM in [4].

On to `COCn1nnc2c(C(N)=O)ncn2c1=O`, for which the 50% growth inhibitory concentration (GI50) in test [1] is 30.8 µM; in [2] it was 37.9 µM; in [3], 26 µM; in test [4] it was 33.1 µM.

`C#CC/N=N/Nc1[nH]cnc1C(N)=O`: the fold change (FC) in [5] is > 2. Further, the GI50 in test [1] worked out at 39.1 µM; in test [2] it was 33.9 µM; in test [3], 32 µM; in test [4], 35.6 µM. The Activity entry in [6] was “Dose-dependent effect”. Moreover, the result in test [7] and in [8] was Active.

As for `C[S+]([O-])Cn1nnc2c(C(N)=O)ncn2c1=O` (stereo not drawn), the GI50 in test [1] is 26.8 µM; in test [2] it was 20.1 µM; in [3] it was 13.7 µM; in test [4], 14.4 µM.

`CSCn1nnc2c(C(N)=O)ncn2c1=O`: the concentration for 50% growth inhibition (GI50) in test [1] was found to be 107 µM; in [2] it was 151 µM; in [3], 59 µM; in test [4] it was 56.5 µM.

Turning to `NC(=O)c1nc[nH]c1N/N=N/CC(F)(F)F`, the GI50 in test [1] was 68.8 µM; in [2], 131 µM; in test [3], 209 µM; in test [4] it was 423 µM.

As to `N#CC/N=N/Nc1[nH]cnc1C(N)=O`, the concentration for 50% growth inhibition (GI50) is 111 µM in test [1], 271 µM in test [2], 106 µM in [3] and 242 µM in [4].

For `CCOC(=O)C=[N+]=[N-]`, the 50% growth inhibitory concentration (GI50) in [1], in [2], in [3] and in test [4] was > 800 µM each time.

`NC(=O)Cn1nnc2c(C(N)=O)ncn2c1=O`: the 50% growth inhibitory concentration (GI50) in test [1] worked out at 38 µM; in test [2] it was 95.3 µM; in test [3], 65.4 µM; in test [4], 72.3 µM.

Turning to `C=CCn1nnc2c(C(N)=O)ncn2c1=O`, the GI50 in test [1] is 258 µM; in [2] it was 239 µM; in test [3], 141 µM; in test [4], 199 µM.

Regarding `NC(=O)c1ncn2c(=O)n(C3CC3)nnc12`, the GI50 in test [1] was 428 µM; in test [2] it was > 500 µM; in test [3] it was 306 µM; in test [4], 360 µM.

`CCOC(=O)C/N=N/Nc1[nH]cnc1C(N)=O`: the concentration for 50% growth inhibition (GI50) stood at 33.6 µM in [1], 37.4 µM in test [2], 30.3 µM in test [3] and 23.4 µM in test [4].

Consider `NC(=O)c1ncn2c(=O)n(CCl)nnc12`, for which the concentration for 50% growth inhibition (GI50) in [1] turned out to be 34.6 µM; in test [2] it was 31 µM; in test [3], 29.3 µM; in test [4], 24.4 µM.

Regarding `Cn1nnc2c(C(N)=O)ncn2c1=O` [TEMOZOLOMIDE], the concentration for 50% growth inhibition (GI50) in [1] is 45.6 µM; in test [2] it was 526 µM; in test [3] it was 72.9 µM; in test [4] it was 395 µM; in test [9] it was > 100 µM; in [12], 280 µM. Also, the GI50 in test [13] is 289 µM; in [14], > 500 µM; in test [15], > 500 µM. The RatioGI50 was determined as 11 in test [10] and 5 in test [11]. In addition, the result in [16] was inactive.

As to `NC(=O)c1ncn2c(=O)n(CCCl)nnc12` [MITOZOLOMIDE], the GI50 turned out to be 10 µM in test [1], 68.4 µM in [2], 22 µM in [3] and 40.3 µM in test [4]. Also, the RatioGI50 in [10] is >2; in [11], >2; in test [17] it was >3; in test [18], >3; in [19] it was 10; in test [20], 10.

With `NC(=O)c1ncn2c(=O)n(CCO)nnc12`, the GI50 in [1] was determined as 204 µM; in test [2], 417 µM; in [3], 288 µM; in test [4], 322 µM.

As for `NC(=O)c1nc[nH]c1N/N=N/CC1CC1`, the GI50 in test [1], in [2], in [3] and in test [4] was > 500 µM throughout.

For `CC(=O)OCn1nnc2c(C(N)=O)ncn2c1=O`, the GI50 in [1] was 48.3 µM; in test [2], 40.4 µM; in test [3] it was 11.8 µM; in test [4] it was 39.4 µM.

As for `COC(=O)C/N=N/Nc1[nH]cnc1C(N)=O`, the concentration for 50% growth inhibition (GI50) is 47.7 µM in [1], 49.7 µM in [2], 32.6 µM in test [3] and 46.4 µM in test [4].

With `COC(=O)Cn1nnc2c(C(N)=O)ncn2c1=O`, the GI50 was determined as 47.5 µM in test [1], 49 µM in test [2], 32.1 µM in test [3] and 46.4 µM in [4].

Regarding `NC(=O)c1ncn2c(=O)n(CCC(=O)O)nnc12`, the concentration for 50% growth inhibition (GI50) in test [1], in test [2], in [3] and in [4] was > 250 µM throughout.

On to `NC(=O)c1ncn2c(=O)n(CC(=O)O)nnc12`, for which the concentration for 50% growth inhibition (GI50) in test [1] was determined as 265 µM; in [2], 296 µM; in test [3], 69.5 µM; in [4], 140 µM.

With `NC(=O)c1ncn2c(=O)n(COCc3ccccc3)nnc12`, the GI50 came out at 52.2 µM in [1], 48.5 µM in [2], 16.5 µM in test [3] and 28.8 µM in test [4].

On to `CCOC(=O)Cn1nnc2c(C(N)=O)ncn2c1=O`, for which the concentration for 50% growth inhibition (GI50) in test [1] was found to be 52.4 µM; in test [2], 61.1 µM; in [3], 63.2 µM; in test [4] it was 55.6 µM.

`CS(=O)(=O)Cn1nnc2c(C(N)=O)ncn2c1=O`: the concentration for 50% growth inhibition (GI50) turned out to be 13.8 µM in test [1], 18.3 µM in test [2], 20.2 µM in test [3] and 7.5 µM in test [4].

`CC(C)(C)C(=O)OCn1nnc2c(C(N)=O)ncn2c1=O`: the GI50 was 45 µM in test [1], 28 µM in test [2], 13.2 µM in [3] and 28.9 µM in [4].

As to `CN(C)C(=O)Cn1nnc2c(C(N)=O)ncn2c1=O`, the GI50 in test [1] was 67.7 µM; in test [2] it was 73.4 µM; in test [3] it was 85.1 µM; in test [4], 92.5 µM.

`CC#CCn1nnc2c(C(N)=O)ncn2c1=O`: the concentration for 50% growth inhibition (GI50) in test [1] was determined as 39.6 µM; in [2], 37.6 µM; in test [3] it was 36.5 µM; in test [4] it was 33 µM.

Turning to `NC(=O)c1nc[nH]c1N/N=N/CCO`, the GI50 was 441 µM in test [1], > 500 µM in test [2], 383 µM in test [3] and 336 µM in test [4].

In the case of `C[Si](C)(C)C#CCn1nnc2c(C(N)=O)ncn2c1=O`, the GI50 was 39.1 µM in test [1], 39.5 µM in test [2], 30.3 µM in [3] and 30.7 µM in [4].

Turning to `NC(=O)c1ncn2c(=O)n(CO)nnc12`, the GI50 was 46.2 µM in [1] and 42.1 µM in [2].

With `COCC/N=N/Nc1[nH]cnc1C(N)=O`, the 50% growth inhibitory concentration (GI50) in test [1], in test [2], in [3] and in test [4] was > 500 µM throughout.
